Assay results published in the supplement of paper PMC10307832.

Assays:
Experiment in all cases: relative viability (nuclei count vs DMSO), 5 days (fraction); higher = more cells survive
[1] = compound: CS(=O)(=O)c1ccc(-c2cnc(N)c(C(=O)Nc3ccccc3)n2)cc1 [VE-821] + CC(=O)c1c(C)c2cnc(Nc3ccc(N4CCNCC4)cn3)nc2n(C2CCCC2)c1=O [Palbociclib] (partner 0.5 µM)
Summary of the method: (§1)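 Five library-drug doses in √10 steps were combined with a fixed anchor-drug dose, or a single drug was given alone, by pin tool to lung cancer cell lines in 1536-well plates the day after seeding. Nuclei were stained and counted after 5 days. Relative viability is the nuclei count in treated wells over that in vehicle wells, taken as the median of duplicate plates.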

[2] = compound: CS(=O)(=O)c1ccc(C(=O)Nc2ccc(Cl)c(-c3ccccn3)c2)c(Cl)c1 [Vismodegib] + N=C(N)NC(=N)NCCc1ccccc1 [Phenformin] (partner 250 µM)
Summary of the method: as §1

[3] = compound: CS(=O)(=O)c1ccc(C(=O)Nc2ccc(Cl)c(-c3ccccn3)c2)c(Cl)c1 [Vismodegib] + O=C(c1cc(Cc2n[nH]c(=O)c3ccccc23)ccc1F)N1CCN(C(=O)C2CC2)CC1 [Olaparib] (partner 8 µM)
Summary of the method: as §1

[4] = compound: N#CC[C@H](C1CCCC1)n1cc(-c2ncnc3[nH]ccc23)cn1 [Ruxolitinib] + N=C(N)NC(=N)NCCc1ccccc1 [Phenformin] (partner 250 µM)
Summary of the method: as §1

Row | Cell Line | relative viability ([1]; first compound 0.08 µM) | relative viability ([1]; first compound 0.253 µM) | relative viability ([1]; first compound 0.8 µM) | relative viability ([1]; first compound 2.53 µM) | relative viability ([1]; first compound 8 µM) | relative viability ([2]; first compound 0.08 µM) | relative viability ([2]; first compound 0.253 µM) | relative viability ([2]; first compound 0.8 µM) | relative viability ([2]; first compound 2.53 µM) | relative viability ([2]; first compound 8 µM) | relative viability ([3]; first compound 0.08 µM) | relative viability ([3]; first compound 0.253 µM) | relative viability ([3]; first compound 0.8 µM) | relative viability ([3]; first compound 2.53 µM) | relative viability ([3]; first compound 8 µM) | relative viability ([4]; first compound 0.08 µM) | relative viability ([4]; first compound 0.253 µM) | relative viability ([4]; first compound 0.8 µM) | relative viability ([4]; first compound 2.53 µM) | relative viability ([4]; first compound 8 µM)
1 | LCLC-103H | 0.552 | 0.513 | 0.524 | 0.523 | 0.448 | 0.39 | 0.332 | 0.328 | 0.357 | 0.323 | 0.759 | 0.757 | 0.73 | 0.733 | 0.832 | 0.349 | 0.326 | 0.298 | 0.337 | 0.286
2 | HARA | 0.227 | 0.29 | 0.239 | 0.279 | 0.299 | 0.47 | 0.355 | 0.537 | 0.503 | 0.415 | 0.786 |  | 0.945 | 0.856 | 0.943 | 0.431 | 0.536 | 0.516 | 0.391 | 0.319
3 | RERF-LC-KJ | 1.2 | 1.01 | 0.973 | 0.929 | 0.792 | 0.422 | 0.427 | 0.432 | 0.437 | 0.455 | 0.985 | 0.826 | 0.785 | 0.862 | 0.96 | 0.349 | 0.418 | 0.426 | 0.42 | 0.332
4 | NCI-H2009 | 0.204 | 0.215 | 0.234 | 0.18 | 0.188 | 0.467 | 0.474 | 0.478 | 0.45 | 0.467 | 0.679 | 0.655 | 0.699 | 0.662 | 0.724 | 0.414 | 0.443 | 0.535 | 0.423 | 0.297
